BigSolDB 2.1

CC(=O)Oc1ccccc1C(=O)O
Conditions | solubility (mole fraction)
in MIBK, 277.46 K | 0.0196
in MIBK, 281.76 K | 0.023
in MIBK, 287.96 K | 0.0283
in MIBK, 292.96 K | 0.0331
in MIBK, 300.18 K | 0.0414
in MIBK, 307.27 K | 0.0511
in MIBK, 312.47 K | 0.0594
in MIBK, 318.36 K | 0.07
in MIBK, 327.95 K | 0.0897
in ethyl acetate, 275.86 K | 0.0154
in ethyl acetate, 283.66 K | 0.0204
in ethyl acetate, 289.86 K | 0.0254
in ethyl acetate, 296.16 K | 0.0313
in ethyl acetate, 302.67 K | 0.0384
in ethyl acetate, 308.68 K | 0.0467
in ethyl acetate, 315.16 K | 0.0564
in ethyl acetate, 321.37 K | 0.0676
in ethyl acetate, 327.91 K | 0.0807
in isobutanol, 276.36 K | 0.0098
in isobutanol, 284.46 K | 0.0151
in isobutanol, 289.27 K | 0.0194
in isobutanol, 294.3 K | 0.0247
in isobutanol, 299.16 K | 0.0309
in isobutanol, 303.65 K | 0.0383
in isobutanol, 308.26 K | 0.0469
in isobutanol, 312.61 K | 0.0567
in isobutanol, 316.87 K | 0.0679
in isobutanol, 320.96 K | 0.0807
in isobutanol, 322.96 K | 0.0875
in isobutanol, 326.57 K | 0.1
in isobutyl acetate, 277.86 K | 0.0109
in isobutyl acetate, 281.16 K | 0.0124
in isobutyl acetate, 287.78 K | 0.0157
in isobutyl acetate, 293.97 K | 0.0198
in isobutyl acetate, 300.25 K | 0.0247
in isobutyl acetate, 307.15 K | 0.0306
in isobutyl acetate, 313.56 K | 0.0376
in isobutyl acetate, 320.16 K | 0.046
in isobutyl acetate, 327.15 K | 0.0559
in n-butanol, 277.66 K | 0.0145
in n-butanol, 282.35 K | 0.0183
in n-butanol, 287.35 K | 0.0232
in n-butanol, 292.35 K | 0.0291
in n-butanol, 297.37 K | 0.036
in n-butanol, 301.66 K | 0.044
in n-butanol, 306.16 K | 0.0531
in n-butanol, 310.35 K | 0.0635
in n-butanol, 314.64 K | 0.0752
in n-butanol, 318.75 K | 0.0883
in n-butanol, 323.44 K | 0.103
in n-propanol, 276.36 K | 0.0164
in n-propanol, 282.96 K | 0.0227
in n-propanol, 288.16 K | 0.0286
in n-propanol, 293.16 K | 0.0354
in n-propanol, 297.85 K | 0.0434
in n-propanol, 302.55 K | 0.0527
in n-propanol, 307.06 K | 0.0632
in n-propanol, 311.66 K | 0.0752
in n-propanol, 316.06 K | 0.0887
in n-propanol, 320.45 K | 0.104
in n-propanol, 324.75 K | 0.121

O=C(O)c1ccccc1
Conditions | solubility (mole fraction)
in 2-butanone, 278.65 K | 0.131
in 2-butanone, 284.29 K | 0.148
in 2-butanone, 289.86 K | 0.166
in 2-butanone, 295.54 K | 0.186
in 2-butanone, 301.27 K | 0.206
in 2-butanone, 307.1 K | 0.229
in 2-butanone, 313.04 K | 0.254
in 2-butanone, 319.06 K | 0.281
in 2-butanone, 325.2 K | 0.311
in MIBK, 276.45 K | 0.11
in MIBK, 281.66 K | 0.124
in MIBK, 287.16 K | 0.139
in MIBK, 292.73 K | 0.156
in MIBK, 298.25 K | 0.175
in MIBK, 303.76 K | 0.195
in MIBK, 309.36 K | 0.217
in MIBK, 315.05 K | 0.242
in MIBK, 320.74 K | 0.264
in MIBK, 325.16 K | 0.281
in ethyl acetate, 279.67 K | 0.105
in ethyl acetate, 285.24 K | 0.121
in ethyl acetate, 289.24 K | 0.133
in ethyl acetate, 293.36 K | 0.146
in ethyl acetate, 298.93 K | 0.167
in ethyl acetate, 303.76 K | 0.186
in ethyl acetate, 308.76 K | 0.206
in ethyl acetate, 313.66 K | 0.228
in ethyl acetate, 318.65 K | 0.252
in ethyl acetate, 323.56 K | 0.278
in ethyl acetate, 326.5 K | 0.306
in isopropyl acetate, 276.27 K | 0.0855
in isopropyl acetate, 283.74 K | 0.105
in isopropyl acetate, 288.69 K | 0.118
in isopropyl acetate, 293.67 K | 0.134
in isopropyl acetate, 298.34 K | 0.15
in isopropyl acetate, 303.36 K | 0.168
in isopropyl acetate, 308.33 K | 0.188
in isopropyl acetate, 313.25 K | 0.209
in isopropyl acetate, 318.25 K | 0.232
in isopropyl acetate, 324.02 K | 0.26
in methanol, 278 K | 0.111
in methanol, 285.5 K | 0.129
in methanol, 292.23 K | 0.145
in methanol, 298.99 K | 0.164
in methanol, 304.78 K | 0.18
in methanol, 312.56 K | 0.204
in methanol, 319.32 K | 0.227
in methanol, 323.49 K | 0.241
in n-butanol, 276.92 K | 0.116
in n-butanol, 281.92 K | 0.13
in n-butanol, 291.77 K | 0.16
in n-butanol, 296.56 K | 0.176
in n-butanol, 301.56 K | 0.194
in n-butanol, 311.66 K | 0.234
in n-butanol, 316.79 K | 0.256
in n-butanol, 321.9 K | 0.279
in n-butanol, 327.3 K | 0.306
in n-propanol, 279.06 K | 0.119
in n-propanol, 284.15 K | 0.133
in n-propanol, 289.26 K | 0.148
in n-propanol, 294.47 K | 0.164
in n-propanol, 299.65 K | 0.182
in n-propanol, 304.75 K | 0.2
in n-propanol, 310.06 K | 0.221
in n-propanol, 315.41 K | 0.242
in n-propanol, 320.77 K | 0.266
in n-propanol, 326.16 K | 0.291
